# Test results from PMC11311241, “In Situ Forming, Enzyme-Responsive Peptoid-Peptide Hydrogels: An Advanced Long-Acting Injectable Drug Delivery System” (Journal of the American Chemical Society, 2024).
# Read-outs that look alike come from different tables or passages of the source.
# How the values were obtained:
# NCTC 929 cells [1] = type: cell-based, murine; settings: 24 h, fluorescence microscopy
# Protocol: (§1) Peptoid-peptide cell cytotoxicity studies were performed using the International Standard (ISO) murine fibroblast subcutaneous connective tissue NCTC 929 (ATCC CCL 1) cell line.[108],[116] Cell cytotoxicity was assessed using three separate assays, outlined fully in Section S.7 of the Supporting Information: (i) 3-(4,5-dimethylthiazol-2-yl)-5-(3-carboxymethoxyphenyl)-2-(4-sulfophenyl)-2H-tetrazolium (MTS) colorimetric assay, (ii) lactate dehydrogenase (LDH) release and (iii) a Live/Dead assay. The cytotoxicity of each peptoid-peptide was tested after 6 (LDH, MTS), 24 (Live/Dead, MTS) and 72 h (MTS) of exposure. […]
# for a further 5 min. A stop reagent (50 μL) was then added, and the UV absorbance was measured at 490 nm using a Tecan Sunrise plate reader. […]
# in absorbance: i) a high LDH release control representing 100% toxicity was generated by adding 5 μL of lysis solution to non-treated cells 15 min before the addition of the test reagent; ii) each peptoid-peptide was solubilized in media at the highest tested concentration (500 μM); iii) the LDH standard was added to the media; and iv) an equal volume of the highest solubilized peptoid-peptide concentration (500 μM) and the LDH standard were added to the media. The percentage of cell cytotoxicity was calculated using Equation 3 below and is reported once again as the mean of nine measurements (three replicates, repeated three times). […]
# alkaline phosphatase = settings: for Strain at complete deformation (G′ and G″ intersect): strain sweep 0.1–1000%, 2.5 rad s-1, 5% w/v gels; for Strain at which the weaker network breaks / Strain at which the stronger second network or entanglement breaks: strain sweep, 5% w/v gels; for Strain at which the weaker network breaks: first deformation; for Strain at which the stronger second network or entanglement breaks: second deformation
# Excerpt: Our drug delivery system is partly defined by drug diffusion from the hydrogel matrix, and hydrolysis of the peptoid-peptide-drug chemical linker. Reproducing supramolecular gels’ mechanical properties is difficult, especially for peptide-based systems. Experimental parameters and formulation factors are particularly important, as highlighted recently by the Adams and Draper groups.[77],[78] Subtle experimental influences e.g. handling and temperature, can lead to issues with reproducibility. […] Loss (G″) and storage (G′) moduli, critical strain (%) and oscillatory time sweeps were performed to determine the rheological changes with time and the potential for rapid in situ hydrogel depot formation upon exposure to 3.98 U mL^–1 phosphatase enzyme. […] Hydrogel formation occurs when the storage modulus (G′) is at least 1 order of magnitude greater than the loss modulus (G″).[79]
# Rapid gelation is important for in situ formation of drug delivery depots to reduce the diffusion of drug(s) from the depot and potential burst release. Quick gelation after injectable administration is also important for our system in order to reduce the availability of the peptoid-peptide ester linkage with the drug to water within the subcutaneous space, providing a diffusion barrier to rapid drug cleavage by hydrolysis.[84] There are several ways in which time for gelation can be defined: a) the time at which the storage modulus (G′) and loss modulus (G″) cross indicating greater solid-like behavior; b) the time point at which G′ is greater by 1 order of magnitude than G″; and c) the time at which G′ and G″ begin to stabilize/plateau. […]
# (i) peptoid-peptide sequence dissolved in PBS prior to addition of 2 U alkaline phosphatase, (ii) after 2 U alkaline phosphatase addition and formulation as outlined in Table S2.
# S.4. Oscillatory rheology
# Anton Paar MCR302 rheometer (Anton Paar, St Albans, UK). Gels were formulated at a 2 mL volume in 7 mL Sterilin ™ vials as previously described .8 A vane and cup geometry was used to perform both frequency and strain sweeps. Frequency sweeps were performed at 37 °C from 1 – 100 rad s-1 at a strain of 0.5%. […] sweeps were perform ed at 37°C, 2.5 rad s-1 and a strain of 0.1 – 1000%. Gel strength was measured by determining the strain at which the gels […]
# Table S3. Gelation times for peptoid-L-peptide and peptoid-D-peptide hydrogels upon addition of alkaline phosphatase enzyme derived from data in Figures S25 – S27 S40 and […]
# * Mean value of storage modulus (G′) and loss modulus (G″) for each peptoid-peptide derived
# [2] = rats
# Protocol: Female Sprague–Dawley rats (n = 18, aged 8–10 weeks, mean weight = 220 g) were purchased from Envigo and acclimatized for 1 week prior to experimentation.
# This treatment was then administered intravenously to the tail vein (8.46 mg kg−1).15 The
# extraction from blood plasma samples was possible. The peptoid-D-peptide experimental
# injectable solution was formed by dissolving lyophilized UV-sterilized
# mL) were obtained from the tail vein of each rat and collected in 1.5 mL preheparinized
# group. Centrifugation (13,400 rpm, 10 min) was utilized to separate blood plasma
# be analyzed via analytical RP-HPLC and a validated calibration curve (Figure S35) as outlined
# The pharmacokinetic parameters were calculated using PKSolver 2.0.16, 17 The
# parameters studied were the drug half-life (t1/2), the time to peak drug concentration (Tmax), the
# maximum plasma concentration (Cmax), the area under the plasma concentration – time curve
# from time zero to the last quantifiable concentration on day 35 (AUC0−35), the observed area
# under the plasma concentration – time curve extrapolated from time zero to infinity (AUC0-
# ∞,obs) and the mean residence time (MRT) of the drug extrapolated from time zero to infinity.
# HIV = settings: cited from earlier work
# [3] = In vitro zidovudine release from hydrogels in PBS, with KinetDS modelling; type: physicochemical
# Excerpt: This is typical of physically encapsulated drug release systems, which are prone to drug leakage and a high burst release.[8],[95] The release profile was monitored over the entire 28 day profile. […] Physically encapsulated systems are more applicable to acute drug delivery applications where rapid treatment, such as pain relief, is required at a high dose for a shorter time period. […] Drugs are released from the hydrogel systems in an unmodified form via simple hydrolysis of the drug-ester linkage under physiological conditions. In practice, diffusion through the peptoid-peptide hydrogel matrix and into the surrounding fluid would enable uptake into the systemic circulation. […] There appears to be a link between gelation times for peptoid-L-peptide and peptoid-D-peptide hydrogels, defined by rheological time sweeps (Figures 2f, S25c–f and Table S3). […] It is well established that rapid gel formation minimizes burst release of drug and this is especially relevant to our system,[96] whereby the presence of a gel should act as a diffusional barrier, reducing the ability of water to hydrolyze the covalent ester linkage between peptoid-peptide and drug.
# KinetDS software was utilized to further understand the drug release kinetics of these novel peptoid-peptide hydrogel platforms. Various kinetic models, including zero-order, first-order, Korsmeyer–Peppas, Hixson–Crowell, Higuchi and Weibull models were applied to determine the mechanism of drug release. […] For injectable hydrogel-forming depots quantified by cumulative release, zero-order, first-order and Korsmeyer–Peppas models tend to be the most relevant for establishing the mechanism of drug release kinetics. The Higuchi model applies to drug release driven mainly by diffusion only and it is accepted that this model should not be used when hydrogel swelling may be a factor in release.[97]−[99] […] The Weibull model is associated more with nanoparticles and heterogeneous formulations; however its application in model injectable hydrogels is increasing.[101],[102] […] This indicates super case II transport (n > 0.85), whereby the drug is mainly released through the erosion of the polymer matrix and/or possibly hydrolysis of the ester-drug linkage where present.[99],[103]
# NCTC 929 cells [4] = test: MTS cell viability / metabolic activity assay; type: cell-based, murine; settings: fully solubilized, 500 μM, 6, 24 and 72 h, vs media-only control, nine replicates
# Protocol: as §1
# The MTS-based CellTiter 96 AQueous One Solution Cell Proliferation Assay (Promega, Southampton, UK) was used to analyze the metabolic activity of treated cells.3 UV absorption was measured at 490 nm using a Tecan Sunrise plate reader (Tecan UK Ltd, Reading, UK) and cell viability/percentage metabolic activity was calculated as outlined in Equation 2 below. […]
# LDH release was quantified as a measure of cytotoxicity using a Cytotoxicity Detection KitPLUS assay (Sigma-Aldrich, Dorset, UK) as previously described.13 The cells were incubated, with each solubilized peptoid-peptide (20 – 500 μM) in combination with NCTC 929 cells for 6 hours, after which 100 μL of test reagent was added to each well, and incubated
# [5] = plasma zidovudine, IV 8.46 mg kg−1, mean ± SEM, n = 6
# [6] = 5% w/v hydrogel, PBS pH 7.4, 37 °C, n = 3
# [7] = KinetDS fit of 28 day release profile
# [8] = 5% w/v, 1–100 rad s-1, strain 0.5%, 37 °C, mean
molecule,measurement,setting,value
(NPhe)4GGGGky(p)-OH [tetrabenzylamine-tetraglycine-D-lysine-O-phospho-D-tyrosine],Live/Dead staining result at 500 μM,NCTC 929 cells [1],demonstrated cytotoxicity
same,G′ from frequency sweeps,alkaline phosphatase; 5% w/v,~2030 Pa
same,Strain at complete deformation (G′ and G″ intersect),alkaline phosphatase; 37 °C,~192%
same,Strain at which the weaker network breaks,alkaline phosphatase,~0.527%
same,Strain at which the stronger second network or entanglement breaks,alkaline phosphatase,~4.81%
Cc1cn([C@H]2C[C@H](N=[N+]=[N-])[C@@H](CO)O2)c(=O)[nH]c1=O [zidovudine],"MRT0-∞,obs",[2]; [5],approximately 1.58 hour
same,Tmax,[2]; [5],0.58 ± 0.08 h
same,"MRT0-∞,obs","[2]; plasma zidovudine, IV 8.46 mg kg−1, mean ± SEM, n = 6, listed as Zidovudine",1.58 ± 0.50 h
same,Time to undetectable plasma levels,[2]; IV control,≤ 6 h
same,Plasma peak zidovudine concentration,"[2]; IV control, mean plasma profile (Figure 5a), n = 6","7,500 ng mL–1"
same,IC90 range,HIV; 90% maximal inhibitory concentration,30–130 ng mL–1
same,four times IC90 value (pharmacokinetic benchmark for HIV protection),HIV,120 ng mL–1
tetrabenzylamine-tetraglycine-L-lysine-O-phospho-L-tyrosine [(NPhe)4GGGGKY(p)-OH],Live/Dead staining result at 500 μM,NCTC 929 cells [1],no observable cytotoxic effects on live cells
(NPhe)4GGGGK(AZT)Y-OH,Cumulative zidovudine released in the first 72 h,"[3]; 5% w/v hydrogel, PBS pH 7.4, 37 °C, % of loaded drug, n = 3",14.2%
same,Cumulative zidovudine released at the final time point (28 days),[3]; [6],15.9%
same,Cumulative zidovudine released within the first 30 min,[3]; [6],11.04%
same,Weibull model shape factor β,[3]; [7],0.9550±0.11
same,Weibull model α,[3]; [7],5.362±0.75
same,Reduction of drug release in the first 72 h versus physical encapsulation,"[3]; PBS pH 7.4, 37 °C, chemically conjugated vs physically encapsulated zidovudine",~88%
same,Strain at complete deformation (G′ and G″ intersect),alkaline phosphatase; 37 °C,~44%
same,Strain at which the weaker network breaks,alkaline phosphatase,~4%
same,Strain at which the stronger second network or entanglement breaks,alkaline phosphatase,~17.5%
(NPhe)4GGGGKY-OH,Weibull model shape factor β,[3]; [7],0.9550
same,Strain at which the weaker network breaks,alkaline phosphatase,~5.78%
same,Strain at which the stronger second network or entanglement breaks,alkaline phosphatase,~36.5%
(NPhe)4GGGGK(AZT)Y(p)-OH,Effect on cell metabolic activity (MTS) at 500 μM,NCTC 929 cells [4],cell toxicity was once again demonstrated only after 72 h
same,Mean loss modulus (G″) from frequency sweeps,alkaline phosphatase; [8],112.18
same,Mean storage modulus (G′) from frequency sweeps,alkaline phosphatase; [8],856.11
same,Tan δ = G″/G′ from freq sweeps,"alkaline phosphatase; 5% w/v, frequency sweeps 1–100 rad s-1, strain 0.5%, 37 °C, from mean moduli",0.131
same,Gelation time: G′ and G″ cross,"alkaline phosphatase; 5% w/v, time sweep after addition of 3.98 U mL-1 alkaline phosphatase, n = 3",≤ 1 min
same,Time for G′ and G″ to stabilize,"alkaline phosphatase; 5% w/v, time sweep after addition of alkaline phosphatase",135 min
